# Laboratory results from patent US20040062780A1, “Compositions and methods useful for the reduction of fine lines and wrinkles” (priority 2002, published 2004).
# Assays:
# [1] = Dissolution of compounds in PEG-12 GDO lipid; assay type: physicochemical
# Protocol: It will be appreciated that, while liposomes form spontaneously at the temperature of formation, cooling of liposomes after formation results in liposomes in trapped kinetic states. To minimize distortions in liposome structure upon such cooling, sterols such as cholesterol may be mixed with the lipid before liposome formation. It has been observed that cholesterol may be dissolved in PEG-12 GDO at up to about 10 percent by weight.
# Tretinoin (all-trans retinoic acid), 6 mg, was dissolved in 500 μl of PEG-12 Glyceryl Dioleate. […] Distilled water, […], was added to the mixture and gently mixed. This yielded a concentration of 1 mg/ml. […] This solution can easily be incorporated into a cream, gel or lotion dosage form.
# [2] = Spontaneous liposome formation of single lipids mixed with aqueous solution; assay type: physicochemical
# Protocol: Lipids were tested at 2 weight percent in aqueous solution. Note that GDL means glycerol dilaurate, GDO means glycerol dioleate, GDM means glycerol dimyristate, GDP means glycerol dipalmitate, and GDS means glycerol distearate. For each lipid, the number after “PEG” indicates the numbers of C2H4O subunits in the PEG chain. The unsaturated dioleate lipids have similar packing parameters to the saturated dimyristate lipids.
# Single lipids were tested for their ability to spontaneously form liposomes when mixed with an aqueous solution. PEG-12 GDO was obtained from Global 7 (New Jersey). All other lipids were synthesized for the experiment (see Table 1). For each experiment, water and lipid were separately equilibrated at the appropriate temperature. Two weight percent lipid was added to the aqueous solution, and the solution was analyzed for the presence of liposomes by optical light microscopy, cryo TEM, freeze fracture TEM, or hot stage microscopy.
compound,measurement,setting,value
"CC1=C(/C=C/C(C)=C/C=C/C(C)=C/C(=O)O)C(C)(C)CCC1 [Tretinoin, all-trans retinoic acid, reference compound]",dissolution in PEG-12 Glyceryl Dioleate,[1]; 6 mg in 500 μl of PEG-12 Glyceryl Dioleate,Dissolution was complete
PEG-12 Glyceryl Dioleate [PEG-12 GDO],Spontaneous Liposomes at 20° C.,"[2]; 2 weight percent lipid in aqueous solution, 20° C.",YES
same,Spontaneous Liposomes at 37° C.,"[2]; 2 weight percent lipid in aqueous solution, 37° C.",YES
same,Spontaneous Liposomes at 60° C.,"[2]; 2 weight percent lipid in aqueous solution, 60° C.",YES
same,spontaneous liposome formation,[2]; all temperatures tested,spontaneously forms liposomes at all temperatures tested
CC(C)CCC[C@@H](C)[C@H]1CC[C@H]2[C@@H]3CC=C4C[C@@H](O)CC[C@]4(C)[C@H]3CC[C@]12C [cholesterol],amount dissolved in PEG-12 GDO,[1]; in PEG-12 GDO,up to 10 percent by weight
